In one assay the target is IKZF2 (Homo sapiens, UniProt Q96SW2+Q9UKS7). The assay is described as follows: Prolabel quantification of IKZF2 protein levels in 293GT cells. The note with it: 293GT cells; for inhibition at 10 µM: 24 h, read-out: IKZF2 % protein reduction at 10 μM, 24 h; for DC50: Prolabel assay, read-out: IKZF2 EC50. Type of assay: cell-based. As for the experimental part:
(§1) The Prolabel system from DiscoverX was used to develop high-throughput and quantitative assays to measure changes in IKZF1, IKZF2 and GSPT1 protein levels in response to compounds. The prolabel tag was derived from the alpha fragment of beta galactosidase and has the following protein sequence: mssnslavvlqrrdwenpgvtqlnrlaahppfaswrnseeartdrpsqqlrslnge. The complementary fragment of beta-galactosidase (from DiscoverX), is added to the prolabel tag to form an active beta galactosidase enzyme whose activity can be precisely measured. In this way, the levels of a fusion protein with the prolabel tag can be quantified in cell lysates.
(§2) Lentiviral vectors, based on the Invitrogen pLenti6.2/V5 DEST backbone, were constructed that placed the prolabel tag upstream of IKZF1, IKZF2 or GSPT1 and expressed the fusion protein from a CMV promoter.
(§3) To ensure moderate and consistent expression of the prolabel fusion proteins across all cells in the population, stable cell lines were constructed from cells expressing a single copy of the construct. Lentivirus packaged with the constructs was made using the Virapower kit from Invitrogen.
(§4) The levels of prolabel tagged fusion proteins in compound treated cell lines were measured as follows:
(§5) Day 1, Cells were diluted to 1.0×10^6 cells/ml in normal growth medium. 17.5 μL of cells were plated in each well of a solid white 384 well plate. Plates were incubated overnight in a 37° C. tissue culture incubator.
(§6) Day 2, Serial dilutions of compounds were made in 384 well plates from 10 mM stocks. 15 μL of DMSO was added to each well of a 384 well plate. In the first column 15 μL of stock compound was added. The solution was mixed and 15 μL was transferred to the next column. This was repeated until 20 two-fold dilutions were prepared. 2.5 μL of diluted compounds were transferred into 60 μL of cell culture medium in another 384 well plate, and mixed well. 2.5 μL of this mixture was added to the plated cells. The final DMSO concentration was 0.5% and the highest concentration of compound was 50 μM. Plates were incubated overnight (e.g., about 14 h, 18 h, or 24 h) in a 37° C. tissue culture incubator.
(§7) Day 3, Plates were removed from the incubator and allowed to equilibrate at rt for 30 minutes. Prolabel substrate (DiscoverX PathHunter Prolabel Detection Kit, User manual: 93-0180) was added as described by the manufacturers protocols. Plates were incubated at rt for three hours and luminescence was read using an Envision reader (Perkin Elmer) Data was analyzed and visualized using the Spotfire software package.

For a further assay, the target named is IKZF1 (Homo sapiens, UniProt Q13422+Q96SW2). The assay is described as follows: Prolabel quantification of IKZF1 protein levels in 293GT cells. Type of assay: cell-based. The note with it: Prolabel assay, read-out: IKZF1 EC50. The protocol: as §1, §2, §3, §4, §5, §6, §7
Sequence of IKZF1 (Q13422 whole entry): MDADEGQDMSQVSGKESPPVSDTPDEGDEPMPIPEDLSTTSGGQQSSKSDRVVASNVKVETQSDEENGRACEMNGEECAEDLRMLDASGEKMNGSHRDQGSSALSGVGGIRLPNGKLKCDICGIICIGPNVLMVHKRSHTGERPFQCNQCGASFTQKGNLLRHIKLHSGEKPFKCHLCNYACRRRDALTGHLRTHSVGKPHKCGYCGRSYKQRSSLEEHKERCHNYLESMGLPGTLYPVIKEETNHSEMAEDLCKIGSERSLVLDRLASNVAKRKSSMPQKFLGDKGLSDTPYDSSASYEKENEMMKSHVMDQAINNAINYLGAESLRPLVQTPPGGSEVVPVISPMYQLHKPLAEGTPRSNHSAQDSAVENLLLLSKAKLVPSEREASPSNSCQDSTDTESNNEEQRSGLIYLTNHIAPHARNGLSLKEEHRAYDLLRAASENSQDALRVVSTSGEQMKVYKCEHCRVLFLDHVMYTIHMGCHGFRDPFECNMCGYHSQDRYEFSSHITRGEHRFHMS
Sequence of IKZF1 (Q96SW2 whole entry): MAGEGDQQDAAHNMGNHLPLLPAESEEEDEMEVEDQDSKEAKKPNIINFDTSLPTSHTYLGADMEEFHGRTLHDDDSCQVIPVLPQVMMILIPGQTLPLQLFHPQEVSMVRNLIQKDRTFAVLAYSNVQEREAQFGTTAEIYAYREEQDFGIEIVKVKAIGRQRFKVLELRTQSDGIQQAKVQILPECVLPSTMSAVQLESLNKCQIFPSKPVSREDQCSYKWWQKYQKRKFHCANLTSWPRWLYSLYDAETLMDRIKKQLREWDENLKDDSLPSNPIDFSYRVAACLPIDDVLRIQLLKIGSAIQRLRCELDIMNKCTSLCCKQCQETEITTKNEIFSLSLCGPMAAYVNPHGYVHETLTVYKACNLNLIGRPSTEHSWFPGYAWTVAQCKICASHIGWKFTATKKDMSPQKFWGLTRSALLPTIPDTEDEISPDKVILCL
Sequence of IKZF1 (Q16531 whole entry partner): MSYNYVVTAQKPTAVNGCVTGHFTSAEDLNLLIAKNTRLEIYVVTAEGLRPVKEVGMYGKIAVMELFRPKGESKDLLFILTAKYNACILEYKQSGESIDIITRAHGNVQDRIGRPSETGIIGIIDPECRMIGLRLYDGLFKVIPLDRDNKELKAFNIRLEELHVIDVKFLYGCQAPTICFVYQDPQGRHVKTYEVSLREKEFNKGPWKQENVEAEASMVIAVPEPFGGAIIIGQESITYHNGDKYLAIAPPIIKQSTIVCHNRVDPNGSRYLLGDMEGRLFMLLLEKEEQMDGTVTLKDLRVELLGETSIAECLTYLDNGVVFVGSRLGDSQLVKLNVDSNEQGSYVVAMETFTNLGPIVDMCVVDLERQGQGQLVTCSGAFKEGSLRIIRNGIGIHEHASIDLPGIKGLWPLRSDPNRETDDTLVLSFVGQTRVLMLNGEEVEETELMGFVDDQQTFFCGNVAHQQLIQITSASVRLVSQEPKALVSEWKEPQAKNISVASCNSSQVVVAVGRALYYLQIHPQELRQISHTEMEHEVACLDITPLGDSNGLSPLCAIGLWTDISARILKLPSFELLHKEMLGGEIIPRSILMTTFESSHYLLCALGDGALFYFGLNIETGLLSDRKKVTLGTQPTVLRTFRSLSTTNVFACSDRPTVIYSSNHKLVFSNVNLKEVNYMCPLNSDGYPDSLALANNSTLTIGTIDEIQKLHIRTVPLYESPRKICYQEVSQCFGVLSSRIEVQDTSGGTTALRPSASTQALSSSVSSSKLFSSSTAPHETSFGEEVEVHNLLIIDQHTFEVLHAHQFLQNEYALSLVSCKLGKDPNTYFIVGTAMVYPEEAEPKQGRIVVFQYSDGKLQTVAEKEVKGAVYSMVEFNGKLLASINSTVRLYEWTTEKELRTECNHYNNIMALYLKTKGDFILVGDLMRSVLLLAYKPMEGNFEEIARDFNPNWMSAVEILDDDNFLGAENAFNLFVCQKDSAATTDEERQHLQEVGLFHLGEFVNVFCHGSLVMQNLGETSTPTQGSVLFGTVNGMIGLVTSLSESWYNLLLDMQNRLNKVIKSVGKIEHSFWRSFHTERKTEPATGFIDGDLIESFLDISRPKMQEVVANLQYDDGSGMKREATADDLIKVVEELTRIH

Where a name gives a salt, the structure may show the parent alone. A value given as a limit tells only on which side of the number the result lay.

Sequence of IKZF2 (Q9UKS7 whole entry, the tested form may be a part): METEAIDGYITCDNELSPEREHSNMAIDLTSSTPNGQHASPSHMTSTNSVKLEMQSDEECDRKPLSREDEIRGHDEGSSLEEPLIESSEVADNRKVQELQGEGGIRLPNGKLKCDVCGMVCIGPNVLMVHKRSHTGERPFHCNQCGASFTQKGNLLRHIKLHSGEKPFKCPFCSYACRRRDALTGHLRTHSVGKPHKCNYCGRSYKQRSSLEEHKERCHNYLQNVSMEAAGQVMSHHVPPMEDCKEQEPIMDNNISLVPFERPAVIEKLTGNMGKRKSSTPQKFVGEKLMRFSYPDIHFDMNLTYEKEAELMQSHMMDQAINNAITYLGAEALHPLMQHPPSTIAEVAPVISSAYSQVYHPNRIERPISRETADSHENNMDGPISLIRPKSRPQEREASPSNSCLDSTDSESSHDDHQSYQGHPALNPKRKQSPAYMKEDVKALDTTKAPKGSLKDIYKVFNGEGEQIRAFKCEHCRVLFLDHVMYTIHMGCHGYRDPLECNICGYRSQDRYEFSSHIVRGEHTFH
Sequence of IKZF2 (Q96SW2 whole entry, the tested form may be a part): as the sequence (Q96SW2 whole entry) above
Sequence of IKZF2 (Q16531 whole entry partner, the tested form may be a part): as the sequence (Q16531 whole entry partner) above

With `CC(C)Oc1cccc(CN2CCC(c3ccc4c(c3)CN(C3CCC(=O)NC3=O)C4=O)CC2)n1` (stereo not drawn) [Compound I-301, 3-(5-(1-((6-isopropoxypyridin-2-yl)methyl)piperidin-4-yl)-1-oxoisoindolin-2-yl)piperidine-2,6-dione], at IKZF2, the inhibition at 10 µM stood at 60% and the DC50 was determined as 140 nM. Moreover, the DC50 at IKZF1 stood at 320 nM.
Take `O=C1CCC(N2Cc3cc(C4CCN(Cc5ccccc5Cl)CC4)ccc3C2=O)C(=O)N1` (stereo not drawn) [Compound I-18, 3-(5-(1-(2-chlorobenzyl)piperidin-4-yl)-1-oxoisoindolin-2-yl)piperidine-2,6-dione]: the inhibition at 10 µM at IKZF2 was determined as 65%. For the same compound, the values for the DC50 at IKZF2 and on IKZF1 were 19 nM and over 30000 nM, respectively.
`O=C1CCC(N2Cc3cc(C4CCN(Cc5ccc6ccccc6c5)CC4)ccc3C2=O)C(=O)N1` (stereo not drawn) [Compound I-47, 3-(5-(1-(naphthalen-2-ylmethyl)piperidin-4-yl)-1-oxoisoindolin-2-yl)piperidine-2,6-dione]: on IKZF2, the inhibition at 10 µM came to 80%. Moreover, the DC50 is 8 nM at IKZF2 and over 30000 nM at IKZF1.
`O=C1CCC(N2Cc3cc(C4CCN(CC5CCC5)CC4)ccc3C2=O)C(=O)N1` (stereo not drawn) [Compound I-5, 3-(5-(1-(cyclobutylmethyl)piperidin-4-yl)-1-oxoisoindolin-2-yl)piperidine-2,6-dione]: at IKZF2, the inhibition at 10 µM was 60% and the DC50 was 27 nM. The DC50 at IKZF1 is over 30000 nM.
Take `O=C1CCC(N2Cc3cc(C4CCN(Cc5ccon5)CC4)ccc3C2=O)C(=O)N1` (stereo not drawn) [Compound I-246, 3-(5-(1-(isoxazol-3-ylmethyl)piperidin-4-yl)-1-oxoisoindolin-2-yl)piperidine-2,6-dione]: on IKZF2, the inhibition at 10 µM was 40% and the DC50 was found to be 12 nM. The DC50 at IKZF1 was over 50000 nM.
`CC(C)Sc1ccc(CN2CCC(c3ccc4c(c3)CN(C3CCC(=O)NC3=O)C4=O)CC2)cc1` (stereo not drawn) [Compound I-228, 3-(5-(1-(4-(isopropylthio)benzyl)piperidin-4-yl)-1-oxoisoindolin-2-yl)piperidine-2,6-dione]: on IKZF2, the inhibition at 10 µM was found to be 70% and the DC50 stood at 10 nM. In addition, at IKZF1, the DC50 was over 30000 nM.
In the case of `CC(C)Oc1ccc(CN2CCC(c3ccc4c(c3)CN(C3CCC(=O)NC3=O)C4=O)CC2)cn1` (stereo not drawn) [Compound I-285, 3-(5-(1-((6-isopropoxypyridin-3-yl)methyl)piperidin-4-yl)-1-oxoisoindolin-2-yl)piperidine-2,6-dione], the inhibition at 10 µM at IKZF2 was found to be 70%. Also, the results for the DC50 on IKZF2 and on IKZF1 were 12 nM and over 30000 nM, respectively.
Regarding `O=C1CCC(N2Cc3cc(C4CCN(Cc5ccccc5)C4)ccc3C2=O)C(=O)N1` (stereo not drawn) [Compound I-260, 3-(5-(1-benzylpyrrolidin-3-yl)-1-oxoisoindolin-2-yl)piperidine-2,6-dione HC(O)OH Salt], on IKZF2, the inhibition at 10 µM was 20% and the DC50 was over 30000 nM. Besides, the DC50 on IKZF1 is over 30000 nM.
Take `O=C1CCC(N2Cc3cc(C4CCN(Cc5ccccc5C(F)(F)F)CC4)ccc3C2=O)C(=O)N1` (stereo not drawn) [Compound I-106, 3-(1-oxo-5-(1-(2-(trifluoromethyl)benzyl)piperidin-4-yl)isoindolin-2-yl)piperidine-2,6-dione]: on IKZF2, the inhibition at 10 µM turned out to be 50% and the DC50 was found to be 14 nM. Besides, the DC50 at IKZF1 was over 30000 nM.
The corresponding values for `O=C1CCC(N2Cc3cc(C4CCN(Cc5cnc6ncccn56)CC4)ccc3C2=O)C(=O)N1` (stereo not drawn) [Compound I-132, 3-(5-(1-(imidazo[1,2-a]pyrimidin-3-ylmethyl)piperidin-4-yl)-1-oxoisoindolin-2-yl)piperidine-2,6-dione] are 60%, 1080 nM and over 30000 nM.
The corresponding values for `O=C1CCC(N2Cc3cc(C4CCN(Cc5ccc(C(=O)O)cc5)CC4)ccc3C2=O)C(=O)N1` (stereo not drawn) [Compound I-72, 4-((4-(2-(2,6-dioxopiperidin-3-yl)-1-oxoisoindolin-5-yl)piperidin-1-yl)methyl)benzoic acid] are 55%, 4500 nM and over 30000 nM.
As for `O=C1CCC(N2Cc3cc(C4CCN(Cc5cccc6ccccc56)CC4)ccc3C2=O)C(=O)N1` (stereo not drawn) [Compound I-49, 3-(5-(1-(naphthalen-1-ylmethyl)piperidin-4-yl)-1-oxoisoindolin-2-yl)piperidine-2,6-dione], on IKZF2, the inhibition at 10 µM came to 60% and the DC50 was 4 nM. Besides, the DC50 on IKZF1 was over 30000 nM.
Regarding `O=C1CCC(N2Cc3cc(C4CCN(Cc5ccc6c(c5)OC(F)(F)O6)CC4)ccc3C2=O)C(=O)N1` (stereo not drawn) [Compound I-87, 3-(5-(1-((2,2-difluorobenzo[b][1,3]dioxol-5-yl)methyl)piperidin-4-yl)-1-oxoisoindolin-2-yl)piperidine-2,6-dione], on IKZF2, the inhibition at 10 µM amounted to 80% and the DC50 came out at 13 nM. Further, on IKZF1, the DC50 was over 30000 nM.
As for `CC(C)n1nccc1CN1CCC(c2ccc3c(c2)CN(C2CCC(=O)NC2=O)C3=O)CC1` (stereo not drawn) [Compound I-289, 3-(5-(1-((1-isopropyl-1H-pyrazol-5-yl)methyl)piperidin-4-yl)-1-oxoisoindolin-2-yl)piperidine-2,6-dione], on IKZF2, the inhibition at 10 µM stood at 60% and the DC50 was found to be 76 nM. The DC50 at IKZF1 was over 30000 nM.
As for `O=C1CCC(N2Cc3cc(C4CCN(Cc5cccc6cccnc56)CC4)ccc3C2=O)C(=O)N1` (stereo not drawn) [Compound I-114, 3-(1-oxo-5-(1-(quinolin-8-ylmethyl)piperidin-4-yl)isoindolin-2-yl)piperidine-2,6-dione], on IKZF2, the inhibition at 10 µM came to 40% and the DC50 is 29 nM. Also, at IKZF1, the DC50 is over 50000 nM.
On to `O=C1CCC(N2Cc3cc(C4CCN(Cc5ccc(CO)cc5)CC4)ccc3C2=O)C(=O)N1` (stereo not drawn) [Compound I-32, 3-(5-(1-(4-(hydroxymethyl)benzyl)piperidin-4-yl)-1-oxoisoindolin-2-yl)piperidine-2,6-dione], for which, at IKZF2, the inhibition at 10 µM is 80% and the DC50 was 46 nM. In addition, on IKZF1, the DC50 is over 30000 nM.
The corresponding values for `Nc1ncc(CN2CCC(c3ccc4c(c3)CN(C3CCC(=O)NC3=O)C4=O)CC2)cn1` (stereo not drawn) [Compound I-122, 3-(5-(1((2-aminopyrimidin-5-yl)methyl)piperidin-4-yl)-1-oxoisoindolin-2-yl)piperidine-2,6-dione] are 70%, 76 nM and over 30000 nM.
The corresponding values for `CC(C)c1ccc(CN2CCC(c3ccc4c(c3)CN(C3CCC(=O)NC3=O)C4=O)CC2)cc1` (stereo not drawn) [Compound I-45, 3-(5-(1-(4-isopropylbenzyl)piperidin-4-yl)-1-oxoisoindolin-2-yl)piperidine-2,6-dione] are 80%, 8 nM and over 30000 nM.
On to `O=C1CCC(N2Cc3cc(C4CCN(Cc5cccc(Cl)c5)CC4)ccc3C2=O)C(=O)N1` (stereo not drawn) [Compound I-16, 3-(5-(1-(3-chlorobenzyl)piperidin-4-yl)-1-oxoisoindolin-2-yl)piperidine-2,6-dione], for which, on IKZF2, the inhibition at 10 µM was determined as 70% and the DC50 was 8 nM. Moreover, on IKZF1, the DC50 is over 30000 nM.
As for `O=C1CCC(N2Cc3cc(C4CCN(Cc5ccc(OCc6ccc(F)cc6)cc5)CC4)ccc3C2=O)C(=O)N1` (stereo not drawn) [Compound I-244, 3-(5-(1-(4-((4-fluorobenzyl)oxy)benzyl)piperidin-4-yl)-1-oxoisoindolin-2-yl)piperidine-2,6-dione], at IKZF2, the inhibition at 10 µM was determined as 75%. In addition, the results for the DC50 at IKZF2 and on IKZF1 were 91 nM and over 30000 nM, respectively.
Turning to `CCc1ccc(CN2CCC(c3ccc4c(c3)CN(C3CCC(=O)NC3=O)C4=O)CC2)cc1` (stereo not drawn) [Compound I-66, 3-(5-(1-(4-ethylbenzyl)piperidin-4-yl)-1-oxoisoindolin-2-yl)piperidine-2,6-dione], at IKZF2, the inhibition at 10 µM was found to be 70% and the DC50 was found to be 9 nM. Also, on IKZF1, the DC50 was over 30000 nM.
The corresponding values for `Cn1ccc(CN2CCC(c3ccc4c(c3)CN(C3CCC(=O)NC3=O)C4=O)CC2)n1` (stereo not drawn) [Compound I-117, 3-(5-(1-((1-methyl-1H-pyrazol-3-yl)methyl)piperidin-4-yl)-1-oxoisoindolin-2-yl)piperidine-2,6-dione] are 50%, 50 nM and over 30000 nM.

(Values after patent US11053218B2, “3-(1-oxoisoindolin-2-yl)piperidine-2,6-dione derivatives and uses thereof” (Novartis AG, priority 2017, dated 2021).)
